Test results from patent publication US20170008921A1, “C-3 NOVEL TRITERPENONE WITH C-28 REVERSE AMIDE DERIVATIVES AS HIV INHIBITORS” (HETERO RESEARCH FOUNDATION, priority 2015, published 2017).

How the values were obtained:
[1] = Cyto-toxicity (MTT assay); assay type: cell-based
Method: On day 1 calculate the number of cells required for the assay and seed 3×10^4 cells in 200 μl per well. Weigh the compound and dissolve it in DMSO to get 10 mM stock which is further diluted to 3 mM and 1 mM. […] Add DMSO to controls in a way to obtain final concentration of solvent that is not greater than 1%. Incubate for 4 days in 5% CO2 incubator at 37° C. On day 4, 100 μl of medium was removed from each well without disturbing the cells. Add 10 μl of MTT reagent and incubate for 4 hours at 5% CO2 incubator at 37° C. for formation of crystals. Add 200 μl of 0.1N acidic isopropanol to dissolve the crystals and read the plate at 590 nm. The values are mentioned in below Table-3 and Table-3A.

[2] = Single dose oral pharmacokinetic study; assay type: in vivo; details: mouse, Mice oral PK @30 mg/kg, plasma, vehicle 10% Solutol+20% PEG; for AUC(0-t): read-out: AUC0-t; for Cmax: read-out: Cmax
Method: The test item was administered through oral route to animals (rat/mice) at 30 mg/kg dose in a suitable vehicle (10% Solutol+20% PEG) at 10 ml/kg dose volume. Blood samples (˜50 μL at each time point) were collected from retro-orbital plexus using K3 EDTA as anticoagulant in eppendorf tubes at defined time intervals 30 minutes, 1 hour, 2 hour, 4 hour, 8 hour, 24 hour & 48 hour under light ether anaesthesia. The samples were centrifuged at 3500×g to separate plasma and stored at −80° C. until analysis. Plasma 25 μl for Mice were processed as per described in sample preparation.
Standard solutions of the test compound 1 mg/mL solutions were prepared in DMSO and further dilutions were made in methanol. […] To the test compound plasma extraction was carried out using Acetonitrile precipitation. After reconstitution with solvent (50% Acetonitrile in Buffer) samples were analyzed by LCMSMS to get the concentrations to calculate PK Parameters.

Structure (SMILES): CC(C)C1=C2[C@H]3CC[C@@H]4[C@@]5(C)CC[C@H](OC(=O)[C@H]6C[C@@H](C(=O)O)C6(C)C)C(C)(C)[C@@H]5CC[C@@]4(C)[C@]3(C)CC[C@@]2(NC(=O)C(C)(C)NC(=O)c2ccc3[nH]c(-c4cnccn4)nc3c2)CC1=O [Example 15, (1R,3S)-3-((((3aR,5aR,5bR,7aR,9S,11aR,11bR,13aS)-1-isopropyl-5a,5b,8,8,11a-pentamethyl-3a-(2-methyl-2-(2-(pyrazin-2-yl)-1H-benzo[d]imidazole-5-carboxamido)propanamido)-2-oxo-3,3a,4,5,5a,5b,6,7,7a,8,9,10,11,11a,11b,12,13,13a-octadecahydro-2H-cyclopenta[a]chrysen-9-yl)oxy)carbonyl)-2,2-dimethylcyclobutane-1-carboxylic acid]
- viability at 4 days, 0.01 µM [1]: 44%
- viability at 4 days, 0.1 µM [1]: 8%
- viability at 4 days, 1 µM [1]: 2%
- AUC(0-t) [2]: 141 µg·h/mL
- Cmax [2]: 12800 ng/mL

Structure (SMILES): Cc1ccc(C(=O)NC2(C(=O)N[C@@]34CC[C@]5(C)[C@H](CC[C@@H]6[C@@]7(C)CC[C@H](OC(=O)[C@H]8C[C@@H](C(=O)O)C8(C)C)C(C)(C)[C@@H]7CC[C@]65C)C3=C(C(C)C)C(=O)C4)CCCC2)cn1 [Example 47, (1R,3S)-3-((((3aR,5aR,5bR,7aR,9S,11aR,11bR,13aS)-1-isopropyl-5a,5b,8,8,11a-pentamethyl-3a-(1-(6-methylnicotinamido)cyclopentane-1-carboxamido)-2-oxo-3,3a,4,5,5a,5b,6,7,7a,8,9,10,11,11a,11b,12,13,13a-octadecahydro-2H-cyclopenta[a]chrysen-9-yl)oxy)carbonyl)-2,2-dimethylcyclobutane-1-carboxylic acid]
- viability at 4 days, 0.01 µM [1]: 75%
- viability at 4 days, 0.1 µM [1]: 14%
- viability at 4 days, 1 µM [1]: 4%
- AUC(0-t) [2]: 538 µg·h/mL
- Cmax [2]: 23600 ng/mL

Structure (SMILES): CC(C)C1=C2[C@H]3CC[C@@H]4[C@@]5(C)CC[C@H](OC(=O)[C@H]6C[C@@H](C(=O)O)C6(C)C)C(C)(C)[C@@H]5CC[C@@]4(C)[C@]3(C)CC[C@@]2(NC(=O)C(C)(C)NC(=O)c2ccc(N3CCOCC3)cc2)CC1=O [Example 18, (1R,3S)-3-((((3aR,5aR,5bR,7aR,9S,11aR,11bR,13aS)-1-isopropyl-5a,5b,8,8,11a-pentamethyl-3a-(2-methyl-2-(4-morpholinobenzamido)propanamido)-2-oxo-3,3a,4,5,5a,5b,6,7,7a,8,9,10,11,11a,11b,12,13,13a-octadecahydro-2H-cyclopenta[a]chrysen-9-yl)oxy)carbonyl)-2,2-dimethylcyclobutane-1-carboxylic acid]
- viability at 4 days, 0.001 µM [1]: 78%
- viability at 4 days, 0.003 µM [1]: 61%
- viability at 4 days, 0.01 µM [1]: 29%
- AUC(0-t) [2]: 236 µg·h/mL
- Cmax [2]: 15900 ng/mL

Structure (SMILES): CC(C)C1=C2[C@H]3CC[C@@H]4[C@@]5(C)CC[C@H](OC(=O)[C@H]6C[C@@H](C(=O)O)C6(C)C)C(C)(C)[C@@H]5CC[C@@]4(C)[C@]3(C)CC[C@@]2(NC(=O)C(C)(C)NC(=O)c2ccoc2)CC1=O [Example 24, (1R,3S)-3-((((3aR,5aR,5bR,7aR,9S,11aR,11bR,13aS)-3a-(2-(furan-3-carboxamido)-2-methylpropanamido)-1-isopropyl-5a,5b,8,8,11a-pentamethyl-2-oxo-3,3a,4,5,5a,5b,6,7,7a,8,9,10,11,11a,11b,12,13,13a-octadecahydro-2H-cyclopenta[a]chrysen-9-yl)oxy)carbonyl)-2,2-dimethylcyclobutane-1-carboxylic acid]
- viability at 4 days, 0.01 µM [1]: 69%
- viability at 4 days, 0.1 µM [1]: 21%
- viability at 4 days, 1 µM [1]: 6%
- AUC(0-t) [2]: 428 µg·h/mL
- Cmax [2]: 29600 ng/mL

Structure (SMILES): Cc1ccc(C(=O)NC(C)(C)C(=O)N[C@@]23CC[C@]4(C)[C@H](CC[C@@H]5[C@@]6(C)CC[C@H](OC(=O)[C@H]7C[C@@H](C(=O)O)C7(C)C)C(C)(C)[C@@H]6CC[C@]54C)C2=C(C(C)C)C(=O)C3)cc1 [Example 23, (1R,3S)-3-((((3aR,5aR,5bR,7aR,9S,11aR,11bR,13aS)-1-isopropyl-5a,5b,8,8,11a-pentamethyl-3a-(2-methyl-2-(4-methylbenzamido)propanamido)-2-oxo-3,3a,4,5,5a,5b,6,7,7a,8,9,10,11,11a,11b,12,13,13a-octadecahydro-2H-cyclopenta[a]chrysen-9-yl)oxy)carbonyl)-2,2-dimethylcyclobutane-1-carboxylic acid]
- viability at 4 days, 0.01 µM [1]: 34%
- viability at 4 days, 0.1 µM [1]: 8%
- viability at 4 days, 1 µM [1]: 4%
- AUC(0-t) [2]: 590 µg·h/mL
- Cmax [2]: 29700 ng/mL

Structure (SMILES): CC(C)C1=C2[C@H]3CC[C@@H]4[C@@]5(C)CC[C@H](OC(=O)[C@H]6C[C@@H](C(=O)O)C6(C)C)C(C)(C)[C@@H]5CC[C@@]4(C)[C@]3(C)CC[C@@]2(NC(=O)C(C)(C)NC(=O)c2ccc(C(F)(F)F)cc2)CC1=O [Example 25, (1R,3S)-3-((((3aR,5aR,5bR,7aR,9S,11aR,11bR,13aS)-1-isopropyl-5a,5b,8,8,11a-pentamethyl-3a-(2-methyl-2-(4-(trifluoromethyl)benzamido)propan amido)-2-oxo-3,3a,4,5,5a,5b,6,7,7a,8,9,10,11,11a,11b,12,13,13a-octadecahydro-2H-cyclopenta[a]chrysen-9-yl)oxy)carbonyl)-2,2-dimethylcyclobutane-1-carboxylic acid]
- viability at 4 days, 0.01 µM [1]: 31%
- viability at 4 days, 0.1 µM [1]: 6%
- viability at 4 days, 1 µM [1]: 2%
- AUC(0-t) [2]: 336 µg·h/mL
- Cmax [2]: 24000 ng/mL

Structure (SMILES): Cc1cc(C(=O)NC(C)(C)C(=O)N[C@@]23CC[C@]4(C)[C@H](CC[C@@H]5[C@@]6(C)CC[C@H](OC(=O)[C@H]7C[C@@H](C(=O)O)C7(C)C)C(C)(C)[C@@H]6CC[C@]54C)C2=C(C(C)C)C(=O)C3)c(C)o1 [Example 33, (1R,3S)-3-((((3aR,5aR,5bR,7aR,9S,11aR,11bR,13aS)-3a-(2-(2,5-dimethylfuran-3-carboxamido)-2-methylpropanamido)-1-isopropyl-5a,5b,8,8,11a-pentamethyl-2-oxo-3,3a,4,5,5a,5b,6,7,7a,8,9,10,11,11a,11b,12,13,13a-octadecahydro-2H-cyclopenta[a]chrysen-9-yl)oxy)carbonyl)-2,2-dimethylcyclobutane-1-carboxylic acid]
- AUC(0-t) [2]: 231 µg·h/mL
- Cmax [2]: 11400 ng/mL

Structure (SMILES): CC(C)C1=C2[C@H]3CC[C@@H]4[C@@]5(C)CC[C@H](OC(=O)[C@H]6C[C@@H](C(=O)O)C6(C)C)C(C)(C)[C@@H]5CC[C@@]4(C)[C@]3(C)CC[C@@]2(NC(=O)C(C)(C)NCc2ccc(Cl)cc2)CC1=O [Example 68, (1R,3S)-3-((((3aR,5aR,5bR,7aR,9S,11aR,11bR,13aS)-3a-(2-((4-chlorobenzyl)amino)-2-methylpropanamido)-1-isopropyl-5a,5b,8,8,11a-pentamethyl-2-oxo-3,3a,4,5,5a,5b,6,7,7a,8,9,10,11,11a,11b,12,13,13a-octadecahydro-2H-cyclopenta[a]chrysen-9-yl)oxy)carbonyl)-2,2-dimethylcyclobutane-1-carboxylic acid]
- AUC(0-t) [2]: 272 µg·h/mL
- Cmax [2]: 20000 ng/mL
